Blank lines part the entries; values can stand above or below the compound they belong to.
What was measured:
Assay type in all cases: nucleic-acid assay
Nucleic Acid [1] = test: Induction of DNA cleavage in Escherichia coli pBR322 DNA assessed as formation of relaxed circular DNA at 100 uM treated for 1 hr using ethidium bromide staining by agarose gel electrophoresis analysis in presence of UV light; design: scale not given: the % may be the effect or the level left
Nucleic Acid [2] = test: Induction of DNA cleavage in Escherichia coli pBR322 DNA assessed as formation of relaxed circular DNA at 100 uM treated for 1 hr using ethidium bromide staining by agarose gel electrophoresis analysis in presence of UV light and 300 mM of NaN3; design: scale not given: the % may be the effect or the level left
Nucleic Acid [3] = test: Induction of DNA cleavage in Escherichia coli pBR322 DNA assessed as formation of relaxed circular DNA at 100 uM treated for 1 hr using ethidium bromide staining by agarose gel electrophoresis analysis in presence of UV light and DMSO; design: scale not given: the % may be the effect or the level left
Nucleic Acid [4] = test: Induction of DNA cleavage in Escherichia coli pBR322 DNA assessed as formation of relaxed circular DNA at 100 uM treated for 1 hr using ethidium bromide staining by agarose gel electrophoresis analysis in presence of UV light and D2O; design: scale not given: the % may be the effect or the level left
Nucleic Acid [5] = test: Induction of DNA cleavage in Escherichia coli pBR322 DNA assessed as formation of relaxed circular DNA at 100 uM treated for 1 hr using ethidium bromide staining by agarose gel electrophoresis analysis in presence of bubbling with O2 gas; design: scale not given: the % may be the effect or the level left
Nucleic Acid [6] = test: Induction of DNA cleavage in Escherichia coli pBR322 DNA assessed as formation of relaxed circular DNA at 25 uM treated for 1 hr using ethidium bromide staining by agarose gel electrophoresis analysis in presence of UV light; design: scale not given: the % may be the effect or the level left
Nucleic Acid [7] = test: Induction of DNA cleavage in Escherichia coli pBR322 DNA assessed as formation of relaxed circular DNA at 100 uM treated for 1 hr using ethidium bromide staining by agarose gel electrophoresis analysis in presence of UV light and 150 mM of NaN3; design: scale not given: the % may be the effect or the level left
Nucleic Acid [8] = test: Induction of DNA cleavage in Escherichia coli pBR322 DNA assessed as formation of relaxed circular DNA at 100 uM treated for 1 hr using ethidium bromide staining by agarose gel electrophoresis analysis in presence of UV light and DABCO; design: scale not given: the % may be the effect or the level left
Nucleic Acid [9] = test: Induction of DNA cleavage in Escherichia coli pBR322 DNA assessed as formation of relaxed circular DNA at 75 uM treated for 1 hr using ethidium bromide staining by agarose gel electrophoresis analysis in presence of UV light; design: scale not given: the % may be the effect or the level left
Nucleic Acid [10] = test: Induction of DNA cleavage in Escherichia coli pBR322 DNA assessed as formation of relaxed circular DNA at 10 uM treated for 1 hr using ethidium bromide staining by agarose gel electrophoresis analysis in presence of UV light; design: scale not given: the % may be the effect or the level left
Nucleic Acid [11] = test: Induction of DNA cleavage in Escherichia coli pBR322 DNA assessed as formation of relaxed circular DNA at 100 uM treated for 1 hr using ethidium bromide staining by agarose gel electrophoresis analysis in presence of bubbling with Ar gas; design: scale not given: the % may be the effect or the level left
Nucleic Acid [12] = test: Induction of DNA cleavage in Escherichia coli pBR322 DNA assessed as formation of relaxed circular DNA at 40 uM treated for 1 hr using ethidium bromide staining by agarose gel electrophoresis analysis in presence of UV light; design: scale not given: the % may be the effect or the level left
Nucleic Acid [13] = test: Induction of DNA cleavage in Escherichia coli pBR322 DNA assessed as formation of relaxed circular DNA treated for 1 hr using ethidium bromide staining by agarose gel electrophoresis analysis in presence of UV light
Nucleic Acid [14] = test: Induction of DNA cleavage in Escherichia coli pBR322 DNA assessed as formation of relaxed circular DNA at 100 uM treated for 1 hr using ethidium bromide staining by agarose gel electrophoresis analysis in presence of UV light and 20 mM of NaN3; design: scale not given: the % may be the effect or the level left
Nucleic Acid [15] = test: Induction of DNA cleavage in Escherichia coli pBR322 DNA assessed as formation of relaxed circular DNA at 100 uM treated for 1 hr using ethidium bromide staining by agarose gel electrophoresis analysis in presence of UV light and 600 mM of NaN3; design: scale not given: the % may be the effect or the level left
Nucleic Acid [16] = test: Induction of DNA cleavage in Escherichia coli pBR322 DNA assessed as formation of relaxed circular DNA at 100 uM treated for 1 hr using ethidium bromide staining by agarose gel electrophoresis analysis in presence of UV light and 75 mM of NaN3; design: scale not given: the % may be the effect or the level left
Nucleic Acid [17] = test: Induction of DNA cleavage in Escherichia coli pBR322 DNA assessed as formation of relaxed circular DNA at 50 uM treated for 1 hr using ethidium bromide staining by agarose gel electrophoresis analysis in presence of UV light; design: scale not given: the % may be the effect or the level left
Nucleic Acid [18] = test: Induction of DNA cleavage in Escherichia coli pBR322 DNA assessed as formation of relaxed circular DNA at 100 uM treated for 1 hr using ethidium bromide staining by agarose gel electrophoresis analysis in presence of UV light and 40 mM of NaN3; design: scale not given: the % may be the effect or the level left
Nucleic Acid [19] = test: Induction of DNA cleavage in Escherichia coli pBR322 DNA assessed as formation of relaxed circular DNA at 100 uM treated for 1 hr using ethidium bromide staining by agarose gel electrophoresis analysis in presence of UV light and ascorbic acid; design: scale not given: the % may be the effect or the level left

SMILES: O=C(NO)C(Cc1ccccc1)NCc1cccc2ccccc12 (stereo not drawn)
Activity (Nucleic Acid [1]): 16%

SMILES: O=C(/C=C/c1cccc2ccccc12)NC(Cc1ccccc1)C(=O)NO (stereo not drawn)
Activity (Nucleic Acid [1]): 15%

SMILES: O=C(/C=C/c1c2ccccc2cc2ccccc12)NC(Cc1ccccc1)C(=O)NO (stereo not drawn)
Activity (Nucleic Acid [1]): 98%

SMILES: O=C(/C=C/c1c2ccccc2cc2ccccc12)NC(Cc1ccccc1)C(=O)O (stereo not drawn)
Activity (Nucleic Acid [1]): 35%

SMILES: O=C(/C=C/c1c2ccccc2cc2ccccc12)NC(Cc1c[nH]c2ccccc12)C(=O)NO (stereo not drawn)
Activity (Nucleic Acid [1]): 89%

SMILES: O=C(NO)C(Cc1c[nH]c2ccccc12)NCc1c2ccccc2cc2ccccc12 (stereo not drawn)
Activity (Nucleic Acid [1]): 91%

Continued, values first:

Activity (Nucleic Acid [1]): 60%
SMILES: O=C(O)C(Cc1ccccc1)NCc1c2ccccc2cc2ccccc12 (stereo not drawn)

Activity (Nucleic Acid [2]): 62%
Activity (Nucleic Acid [3]): 54%
Activity (Nucleic Acid [4]): 100%
Activity (Nucleic Acid [5]): 100%
Activity (Nucleic Acid [6]): 4%
Activity (Nucleic Acid [7]): 63%
Activity (Nucleic Acid [8]): 74%
Activity (Nucleic Acid [9]): 67%
Activity (Nucleic Acid [10]): 2%
Activity (Nucleic Acid [1]): 97%
Activity (Nucleic Acid [11]): 75%
Activity (Nucleic Acid [12]): 10%
Activity (Nucleic Acid [13]): Dose-dependent effect
Activity (Nucleic Acid [14]): 97%
Activity (Nucleic Acid [15]): 62%
Activity (Nucleic Acid [16]): 77%
Activity (Nucleic Acid [17]): 25%
Activity (Nucleic Acid [18]): 86%
Activity (Nucleic Acid [19]): 37%
SMILES: O=C(NO)C(Cc1ccccc1)NCc1c2ccccc2cc2ccccc12 (stereo not drawn)

Activity (Nucleic Acid [1]): 99%
SMILES: O=C(/C=C/c1c2ccccc2cc2ccccc12)NC(C(=O)NO)c1ccccc1 (stereo not drawn)

Activity (Nucleic Acid [1]): 98%
SMILES: O=C(NO)C(NCc1c2ccccc2cc2ccccc12)c1ccccc1 (stereo not drawn)

Source: ChEMBL document CHEMBL2169745, “Photoinduced DNA cleavage by anthracene based hydroxamic acids” (Bioorg Med Chem Lett, 2012)
